Calls of active or inactive are those of the source. No cut-off for these calls is given here.
Columns and labels:
Homo sapiens [1] = species on record: Homo sapiens; assay: Chaperone activity at GALNS p.R386C/p.F285 deletion mutant in mucopolysaccharidosis IVA patient-derived fibroblasts GM00593 assessed as fold increase in enzyme activity using 4MUGPS as substrate at 10 uM incubated for 48 hrs by fluorescence assay relative to control
[2] = target: T1, N-acetylgalactosamine-6-sulfatase (Homo sapiens) (UniProt P34059); assay: Chaperone activity at recombinant human GALNS expressed in HEK293 cells assessed as fold increase in extracellular enzyme activity using 4MUGPS as substrate at 10 uM incubated for 48 hrs by fluorescence assay relative to control; format: cell-based
T1 sequence (whole entry): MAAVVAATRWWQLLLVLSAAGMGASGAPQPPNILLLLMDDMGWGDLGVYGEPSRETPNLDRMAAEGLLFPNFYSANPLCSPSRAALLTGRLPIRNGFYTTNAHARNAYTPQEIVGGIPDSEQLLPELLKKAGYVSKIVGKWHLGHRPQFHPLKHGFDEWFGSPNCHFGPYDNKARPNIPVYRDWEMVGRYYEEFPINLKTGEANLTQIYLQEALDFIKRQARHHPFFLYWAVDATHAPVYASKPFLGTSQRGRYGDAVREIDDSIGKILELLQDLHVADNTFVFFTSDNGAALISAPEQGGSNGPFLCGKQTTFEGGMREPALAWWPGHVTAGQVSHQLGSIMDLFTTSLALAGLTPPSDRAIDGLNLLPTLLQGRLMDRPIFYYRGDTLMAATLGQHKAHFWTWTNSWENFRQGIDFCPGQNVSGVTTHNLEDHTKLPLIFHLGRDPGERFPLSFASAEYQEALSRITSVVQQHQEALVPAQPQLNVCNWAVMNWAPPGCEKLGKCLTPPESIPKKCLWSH

Homo sapiens [3] = species on record: Homo sapiens; assay: Chaperone activity at GALNS p.R61W/p.W405_T406 deletion mutant in mucopolysaccharidosis IVA patient-derived fibroblasts GM01361 assessed as enzyme activity using 4MUGPS as substrate at 1 to 10 uM incubated for 48 hrs by fluorescence assay
[4] = target: T1, N-acetylgalactosamine-6-sulfatase (Homo sapiens); assay: Inhibition of recombinant human GALNS expressed in Pichia pastoris at 0.001 to 50 uM using 4MUGPS as substrate incubated for 18 hrs by fluorescence assay relative to control
Homo sapiens [5] = species on record: Homo sapiens; assay: Chaperone activity at GALNS p.A393S mutant in mucopolysaccharidosis IVA patient-derived fibroblasts GM00958 assessed as enzyme activity using 4MUGPS as substrate at 0.001 to 10 uM incubated for 48 hrs by fluorescence assay
[6] = target: T1, N-acetylgalactosamine-6-sulfatase (Homo sapiens); assay: Chaperone activity at recombinant human GALNS expressed in HEK293 cells assessed as fold increase in extracellular enzyme activity using 4MUGPS as substrate at 1 uM incubated for 48 hrs by fluorescence assay relative to control; format: cell-based
[7] = Total plasma concentration in parkinson's disease patients; format: ADME, cell-free; details: human
Homo sapiens [8] = species on record: Homo sapiens; assay: (§1) Chaperone activity at GALNS p.R386C/p.F285 deletion mutant in mucopolysaccharidosis IVA patient-derived fibroblasts GM00593 assessed as reduction in lysosomal mass by measuring mean fluorescence intensity at 10 uM incubated for 36 hrs by deep red Lysotracker based flow cytometric analysis (reference value: 61.8 +/- 8.4%); parameters: scale not given: the % may be the effect or the level left
[9] = target: T1, N-acetylgalactosamine-6-sulfatase (Homo sapiens); assay: Chaperone activity at GALNS in human fibroblasts assessed as change in lysosomal mass at 0.01 to 10 uM incubated for 36 hrs by deep red Lysotracker based flow cytometric analysis
Homo sapiens [10] = species on record: Homo sapiens; assay: as §1, with “1” for “10”; parameters: scale not given: the % may be the effect or the level left
Homo sapiens [11] = species on record: Homo sapiens; assay: Chaperone activity at GALNS p.R61W/p.W405_T406 deletion mutant in mucopolysaccharidosis IVA patient-derived fibroblasts GM01361 assessed as fold increase in enzyme activity using 4MUGPS as substrate at 0.1 uM incubated for 48 hrs by fluorescence assay relative to control
Homo sapiens [12] = species on record: Homo sapiens; assay: (§2) Chaperone activity at GALNS p.R61W/p.W405_T406 deletion mutant in mucopolysaccharidosis patient-derived fibroblasts GM01361 assessed as reduction in lysosomal mass by measuring mean fluorescence intensity at 0.1 uM incubated for 36 hrs by deep red Lysotracker based flow cytometric analysis (reference value: 48.3 +/- 7.7%); parameters: scale not given: the % may be the effect or the level left
Homo sapiens [13] = species on record: Homo sapiens; assay: as §2, with “mucopolysaccharidosis IVA” for “mucopolysaccharidosis”, “0.01” for “0.1”; parameters: scale not given: the % may be the effect or the level left
[14] = Protein binding in plasma of parkinson's disease patients; format: ADME, cell-free; details: human, read-out: PPB

## CC(C)C[C@H]1C(=O)N2CCC[C@H]2[C@]2(O)O[C@](NC(=O)[C@@H]3C=C4c5cccc6[nH]c(Br)c(c56)C[C@H]4N(C)C3)(C(C)C)C(=O)N12 [BROMOCRIPTINE]
Homo sapiens [1]
  fold change (FC): 1.52
[2]
  fold change (FC): 1.48
Homo sapiens [3]
  Activity: inactive
[4]
  inhibition: 30%
Homo sapiens [5]
  Activity: inactive
[6]
  fold change (FC): 1.36
[7]
  concentration: 10 to 250 nM
Homo sapiens [8]
  Activity: 10.5%
[9]
  Activity: inactive
Homo sapiens [10]
  Activity: 18.2%
Homo sapiens [11]
  fold change (FC): 1.5
Homo sapiens [12]
  Activity: 7.3%
Homo sapiens [13]
  Activity: 11.7%
[14]
  fraction unbound: 0.04 to 0.1

Source: ChEMBL document CHEMBL4622962, “Bromocriptine as a Novel Pharmacological Chaperone for Mucopolysaccharidosis IV A” (ACS Med Chem Lett, 2020)
